Measured values: ChEMBL document CHEMBL3885881, “DrugMatrix”

Species on record: Rattus norvegicus
Test: DrugMatrix - Regimen: Daily Repeat
Format: toxicity, organism-based, Sprague-Dawley
Parameters: regimen Daily Repeat, gender Male, age 6-8 weeks
Conditions: in vivo, po, route oral GAVAGE, vehicle .5 % CMC; for ABSOLUTE BASOPHIL / ABSOLUTE EOSINOPHIL / ABSOLUTE LYMPHOCYTE / ABSOLUTE MONOCYTE / ABSOLUTE SEGMENTED NEUTROPHIL / BASOPHIL / EOSINOPHIL / ERYTHROCYTE COUNT / HEMATOCRIT / HEMOGLOBIN / LEUKOCYTE COUNT / LYMPHOCYTE / MEAN CORPUSCULAR HEMOGLOBIN / MEAN CORPUSCULAR HEMOGLOBIN CONCENTRATION / MEAN CORPUSCULAR VOLUME / MONOCYTE / NEUTROPHIL / NUCLEATED RED BLOOD CELLS / PLATELET COUNT: tissue Blood; for ALANINE AMINOTRANSFERASE / ALBUMIN / ALKALINE PHOSPHATASE / ASPARTATE AMINOTRANSFERASE / BLOOD UREA NITROGEN / CARBON DIOXIDE / CHLORIDE / CHOLESTEROL / CREATINE PHOSPHOKINASE / CREATININE / GLUCOSE / LACTATE DEHYDROGENASE / LIPASE / PHOSPHORUS / POTASSIUM / SODIUM / TOTAL BILIRUBIN / TOTAL PROTEIN / URIC ACID: tissue Plasma
[1] = 0.006 mg/kg, 72 h, dose level Low, time 3 day
[2] = 0.006 mg/kg, 120 h, dose level Low, time 5 day
[3] = 0.04 mg/kg, 72 h, dose level High, time 3 day
[4] = 0.04 mg/kg, 120 h, dose level High, time 5 day

## C=C1/C(=C\C=C2/CCC[C@]3(C)[C@@H]([C@H](C)CCCC(C)(C)O)CC[C@@H]23)C[C@@H](O)C[C@@H]1O [CALCITRIOL]
[1]
  ABSOLUTE BASOPHIL: 0 CELLS/uL
  ABSOLUTE EOSINOPHIL: 45.67 CELLS/uL
  ABSOLUTE LYMPHOCYTE: 10032.33 CELLS/uL
  ABSOLUTE MONOCYTE: 329.67 CELLS/uL
  ABSOLUTE SEGMENTED NEUTROPHIL: 1592.33 CELLS/uL
  BASOPHIL: 0%
  EOSINOPHIL: 0.33%
  ERYTHROCYTE COUNT: 5.61 x10E6/uL
  HEMATOCRIT: 34.07%
  HEMOGLOBIN: 13.17 G/DL
  LEUKOCYTE COUNT: 12 x10E3/uL
  LYMPHOCYTE: 84%
  MEAN CORPUSCULAR HEMOGLOBIN: 23.57 pg
  MEAN CORPUSCULAR HEMOGLOBIN CONCENTRATION: 38.7 G/DL
  MEAN CORPUSCULAR VOLUME: 60.93 fL
  MONOCYTE: 2.67%
  NEUTROPHIL: 13%
  NUCLEATED RED BLOOD CELLS: 0 /100WBC
  PLATELET COUNT: 1046.67 x10E3/uL
  ALANINE AMINOTRANSFERASE: 66.67 u/L
  ALBUMIN: 3.93 G/DL
  ALKALINE PHOSPHATASE: 358 u/L
  ASPARTATE AMINOTRANSFERASE: 93.67 u/L
  BLOOD UREA NITROGEN: 17 mg/dL
  CARBON DIOXIDE: 25.33 mmol/L
  CHLORIDE: 101.33 MEQ/L
  CHOLESTEROL: 73 mg/dL
  CREATINE PHOSPHOKINASE: 357 u/L
  CREATININE: 0.21 mg/dL
  GLUCOSE: 146.67 mg/dL
  LACTATE DEHYDROGENASE: 503.33 u/L
  LIPASE: 11 u/L
  PHOSPHORUS: 13.67 mg/dL
  POTASSIUM: 6.19 MEQ/L
  SODIUM: 143.5 MEQ/L
  TOTAL BILIRUBIN: 0.17 mg/dL
  TOTAL PROTEIN: 5.8 G/DL
  URIC ACID: 1.47 mg/dL
[2]
  ABSOLUTE BASOPHIL: 0 CELLS/uL
  ABSOLUTE EOSINOPHIL: 0 CELLS/uL
  ABSOLUTE LYMPHOCYTE: 11413 CELLS/uL
  ABSOLUTE MONOCYTE: 402.33 CELLS/uL
  ABSOLUTE SEGMENTED NEUTROPHIL: 1784.67 CELLS/uL
  BASOPHIL: 0%
  EOSINOPHIL: 0%
  ERYTHROCYTE COUNT: 5.87 x10E6/uL
  HEMATOCRIT: 34.33%
  HEMOGLOBIN: 13.57 G/DL
  LEUKOCYTE COUNT: 13.6 x10E3/uL
  LYMPHOCYTE: 84%
  MEAN CORPUSCULAR HEMOGLOBIN: 23.17 pg
  MEAN CORPUSCULAR HEMOGLOBIN CONCENTRATION: 39.53 G/DL
  MEAN CORPUSCULAR VOLUME: 58.53 fL
  MONOCYTE: 3%
  NEUTROPHIL: 13%
  NUCLEATED RED BLOOD CELLS: 0 /100WBC
  PLATELET COUNT: 1088.67 x10E3/uL
  ALANINE AMINOTRANSFERASE: 57.33 u/L
  ALBUMIN: 4.37 G/DL
  ALKALINE PHOSPHATASE: 445.33 u/L
  ASPARTATE AMINOTRANSFERASE: 99.67 u/L
  BLOOD UREA NITROGEN: 19 mg/dL
  CARBON DIOXIDE: 31.33 mmol/L
  CHLORIDE: 95.33 MEQ/L
  CHOLESTEROL: 61 mg/dL
  CREATINE PHOSPHOKINASE: 435 u/L
  CREATININE: 0.17 mg/dL
  GLUCOSE: 145 mg/dL
  LACTATE DEHYDROGENASE: 606.67 u/L
  LIPASE: 10.33 u/L
  PHOSPHORUS: 11.6 mg/dL
  POTASSIUM: 5.78 MEQ/L
  SODIUM: 141.37 MEQ/L
  TOTAL BILIRUBIN: 0.13 mg/dL
  TOTAL PROTEIN: 6.37 G/DL
  URIC ACID: 1.6 mg/dL
[3]
  ABSOLUTE BASOPHIL: 0 CELLS/uL
  ABSOLUTE EOSINOPHIL: 117 CELLS/uL
  ABSOLUTE LYMPHOCYTE: 9651 CELLS/uL
  ABSOLUTE MONOCYTE: 117 CELLS/uL
  ABSOLUTE SEGMENTED NEUTROPHIL: 6315 CELLS/uL
  BASOPHIL: 0%
  EOSINOPHIL: 0.67%
  ERYTHROCYTE COUNT: 6 x10E6/uL
  HEMATOCRIT: 37.07%
  HEMOGLOBIN: 14.33 G/DL
  LEUKOCYTE COUNT: 16.2 x10E3/uL
  LYMPHOCYTE: 57.67%
  MEAN CORPUSCULAR HEMOGLOBIN: 23.93 pg
  MEAN CORPUSCULAR HEMOGLOBIN CONCENTRATION: 38.67 G/DL
  MEAN CORPUSCULAR VOLUME: 62 fL
  MONOCYTE: 0.67%
  NEUTROPHIL: 41%
  NUCLEATED RED BLOOD CELLS: 0 /100WBC
  PLATELET COUNT: 1193.33 x10E3/uL
  ALANINE AMINOTRANSFERASE: 118.67 u/L
  ALBUMIN: 3.1 G/DL
  ALKALINE PHOSPHATASE: 333 u/L
  ASPARTATE AMINOTRANSFERASE: 517.33 u/L
  BLOOD UREA NITROGEN: 95 mg/dL
  CARBON DIOXIDE: 24 mmol/L
  CHLORIDE: 100 MEQ/L
  CHOLESTEROL: 98.67 mg/dL
  CREATINE PHOSPHOKINASE: 1977.67 u/L
  CREATININE: 1.67 mg/dL
  GLUCOSE: 129.67 mg/dL
  LACTATE DEHYDROGENASE: 1234.67 u/L
  LIPASE: 10 u/L
  PHOSPHORUS: 17.23 mg/dL
  POTASSIUM: 5.62 MEQ/L
  SODIUM: 140.85 MEQ/L
  TOTAL BILIRUBIN: 0.2 mg/dL
  TOTAL PROTEIN: 5.9 G/DL
  URIC ACID: 1.93 mg/dL
[4]
  ABSOLUTE BASOPHIL: 0 CELLS/uL
  ABSOLUTE EOSINOPHIL: 37.4 CELLS/uL
  ABSOLUTE LYMPHOCYTE: 15678.4 CELLS/uL
  ABSOLUTE MONOCYTE: 350.8 CELLS/uL
  ABSOLUTE SEGMENTED NEUTROPHIL: 1413.4 CELLS/uL
  BASOPHIL: 0%
  EOSINOPHIL: 0.2%
  ERYTHROCYTE COUNT: 6.14 x10E6/uL
  HEMATOCRIT: 35.74%
  HEMOGLOBIN: 13.9 G/DL
  LEUKOCYTE COUNT: 17.48 x10E3/uL
  LYMPHOCYTE: 89.8%
  MEAN CORPUSCULAR HEMOGLOBIN: 22.62 pg
  MEAN CORPUSCULAR HEMOGLOBIN CONCENTRATION: 38.88 G/DL
  MEAN CORPUSCULAR VOLUME: 58.22 fL
  MONOCYTE: 2%
  NEUTROPHIL: 8%
  NUCLEATED RED BLOOD CELLS: 0.2 /100WBC
  PLATELET COUNT: 1031.8 x10E3/uL
  ALANINE AMINOTRANSFERASE: 34.8 u/L
  ALBUMIN: 3.62 G/DL
  ALKALINE PHOSPHATASE: 233.8 u/L
  ASPARTATE AMINOTRANSFERASE: 68.4 u/L
  BLOOD UREA NITROGEN: 19.4 mg/dL
  CARBON DIOXIDE: 30.2 mmol/L
  CHLORIDE: 98.6 MEQ/L
  CHOLESTEROL: 99.6 mg/dL
  CREATINE PHOSPHOKINASE: 347.4 u/L
  CREATININE: 0.2 mg/dL
  GLUCOSE: 143.4 mg/dL
  LACTATE DEHYDROGENASE: 272.4 u/L
  LIPASE: 9.2 u/L
  PHOSPHORUS: 10.48 mg/dL
  POTASSIUM: 5.5 MEQ/L
  SODIUM: 142.72 MEQ/L
  TOTAL BILIRUBIN: 0.1 mg/dL
  TOTAL PROTEIN: 5.84 G/DL
  URIC ACID: 1.34 mg/dL
